These results are taken from article PMC6272348, “Four New Pentasaccharide Resin Glycosides from Ipomoea cairica with Strong α-Glucosidase Inhibitory Activity” (Molecules, 2015).

For the assay, the target named is α-glucosidase. The experiment in a line: α-glucosidase inhibition assay (PNPG substrate). Format: biochemical. The settings on record: pH 6.8, 37 °C, 10 min, 0.01 M PNPG substrate, 1 U/mL enzyme; means ± SD of three independent replicates; read-out: α-Glucosidase Inhibition Contstant (IC50). The protocol: The a-glucosidase inhibition assay was performed according to a slightly modified method of Pierre et al.. α-Glucosidase was purchased from Sigma (San Francisco, CA, USA, No. M0035-15). The inhibition was measured spectrophotometrically at pH 6.8 and at 37 °C for 10 min, using 0.01 M p-nitrophenyl a-D-glucopyranoside (PNPG) from Sigma (No. M0103) as a substrate and 1 U/mL of enzyme, in 0.067 M KH2PO4-Na2HPO4 buffer. […] The increment in absorption at 410 nm due to the hydrolysis of PNPG by α-glucosidase was monitored continuously with an automatic multi-functional microplate reader.

Regarding `CCCCCC1CCCCCCCCCC(=O)OC2C(OC(C)C(OC3OC(C)C(OC4OC(C)C(OC(=O)C(C)CC)C(OC(=O)C=Cc5ccccc5)C4O)C(OC4OC(C)C(O)C(O)C4O)C3OC(=O)C(C)CC)C2O)OC2C(O1)OC(CO)C(O)C2O` [Compound 1, (S)-jalapinolic acid 11-O-α-L-rhamnopyranosyl-(1→3)-O-[3-O-trans-cinnamoyl-4-O-(S)-2-methyl-butyryl-α-L-rhamnopyranosyl-(1→4)]-O-[2-O-(S)-2-methylbutyryl]-α-L-rhamnopyranosyl-(1→4)-O-α-L-rhamnopyranosyl-(1→2)-O-β-D-glucopyranoside, intramolecular 1,2''-ester], the IC50 is 21.4 ± 2.9 µM.

`CCCCCC1CCCCCCCCCC(=O)OC2C(OC(C)C(OC3OC(C)C(OC4OC(C)C(OC(=O)C(C)CC)C(OC(=O)C=Cc5ccccc5)C4O)C(OC4OC(C)C(O)C(O)C4O)C3OC(=O)CCC)C2O)OC2C(O1)OC(CO)C(O)C2O` (stereo not shown) [Compound 2, Cairicoside II]: the IC50 stood at 26.2 ± 4.6 µM.

For the compound `CCCCCCCC(=O)OC1C(OC2C(C)OC3OC4C(OC(CCCCC)CCCCCCCCCC(=O)OC3C2O)OC(CO)C(O)C4O)OC(C)C(OC2OC(C)C(OC(=O)C(C)CC)C(OC(=O)C=Cc3ccccc3)C2O)C1OC1OC(C)C(O)C(O)C1O` (stereo not shown) [Compound 3, Cairicoside III], the IC50 turned out to be 30.4 ± 3.9 µM.

For `CCCCCCCCCC(=O)OC1C(OC2C(C)OC3OC4C(OC(CCCCC)CCCCCCCCCC(=O)OC3C2O)OC(CO)C(O)C4O)OC(C)C(OC2OC(C)C(OC(=O)C(C)CC)C(OC(=O)C=Cc3ccccc3)C2O)C1OC1OC(C)C(O)C(O)C1O` (stereo not shown) [Compound 4, Cairicoside IV], the IC50 came out at 28.9 ± 1.4 µM.
